Measured values: ChEMBL document CHEMBL1123438, “Queuine analogues. Their synthesis and inhibition of growth of mouse L5178Y cells in vitro” (1986)

Assays:
[1] = target: T1, Queuine tRNA-ribosyltransferase catalytic subunit 1 (Rattus norvegicus) (UniProt Q4QR99); experiment: Ability to act as substrate of rat liver tRNA-Guanine Transglycosylase.
T1 sequence (whole entry): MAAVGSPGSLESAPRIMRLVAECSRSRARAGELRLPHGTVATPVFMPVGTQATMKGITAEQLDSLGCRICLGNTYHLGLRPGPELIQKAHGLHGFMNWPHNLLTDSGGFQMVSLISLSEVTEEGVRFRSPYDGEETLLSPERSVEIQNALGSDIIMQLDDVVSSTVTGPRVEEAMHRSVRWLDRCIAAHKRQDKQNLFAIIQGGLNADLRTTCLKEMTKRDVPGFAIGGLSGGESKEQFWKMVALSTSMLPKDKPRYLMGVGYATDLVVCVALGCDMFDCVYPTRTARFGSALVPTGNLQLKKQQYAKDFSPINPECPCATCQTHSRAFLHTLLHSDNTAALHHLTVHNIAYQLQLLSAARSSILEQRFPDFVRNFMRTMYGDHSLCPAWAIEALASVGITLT

[2] = test system: L5178Y; experiment: Compound was tested for inhibition of growth of L5178Y cells at concentration of 1 ug/mL; assay type: functional; conditions: Mus musculus
[3] = test system: L5178Y; experiment: Inhibition of L5178Y cell growth at 100 ug/mL.
[4] = test system: L5178Y; experiment: Inhibition of L5178Y cell growth at 10 ug/mL.

SMILES | Incorporation [1] | inhibition at 1 µg/mL [2] | Inhibition [3] | Inhibition [4]
Nc1nc(O)c2c(CNc3ccccc3O)c[nH]c2n1 | 76% | 25% | 90% | 53%
NCc1c[nH]c2nc(N)nc(S)c12 | 50% | < 10% | 77% | 36%
Nc1nc(O)c2c(n1)N=CC2CNCC(=O)O (stereo unspecified) | 48% | – | 20% | <10%
Nc1nc(O)c2c(CN3CCCCC3)c[nH]c2n1 | 65% | – | 36% | <10%
Nc1nc(O)c2c(CNC3C=C[C@@H](O)[C@H]3O)c[nH]c2n1 (stereo partly specified) | 100% | – | 20% | <10%
CCCNCc1c[nH]c2nc(N)nc(O)c12 | 94% | – | 43% | <10%
CC1(C)OC2C(NCc3c[nH]c4nc(N)nc(O)c34)C=C[C@H]2O1 (stereo partly specified) | 100% | – | 21% | <10%
Nc1nc(O)c2c(CNC3CCCC3)c[nH]c2n1 | 80% | – | 74% | 17%
Nc1nc(O)c2c(CNCc3ccc(I)cc3)c[nH]c2n1 | 98% | – | 77% | 19%
CC(C)C(=O)NCc1c[nH]c2nc(N)nc(O)c12 | 36% | – | 87% | 16%
Nc1nc(O)c2c(CNCCOCCO)c[nH]c2n1 | 98% | – | 9% | <10%
Nc1nc(O)c2c(CNC3C=C[C@@H](O)C3O)c[nH]c2n1 (stereo partly specified) | 120% | – | 23% | <10%
N/C(=N/Cc1c[nH]c2nc(N)nc(O)c12)c1cc(I)c(O)c(I)c1 | 48% | – | 89% | 31%
CC1(C)OC2C(NCc3c[nH]c4nc(N)nc(S)c34)C=C[C@@H]2O1 (stereo partly specified) | 123% | 46% | 94% | 87%
Nc1nc(O)c2c(CNC(=O)CI)c[nH]c2n1 | 0% | 49% | 89% | 87%
CC1(C)OC2C(NCc3c[nH]c4nc(N)nc(O)c34)C=C[C@@H]2O1 (stereo partly specified) | 55% | – | 34% | <10%
Nc1nc(O)c2c(CNC3C=C[C@H](O)[C@@H]3O)c[nH]c2n1 (stereo partly specified) | 70% | – | 53% | <10%
Nc1nc(S)c2c(CNC3C=C[C@H](O)C3O)c[nH]c2n1 (stereo partly specified) | 78% | 12% | 88% | 54%
Nc1nc(O)c2c(CNc3cccc(O)c3)c[nH]c2n1 | 33% | 12% | 79% | 65%
Nc1nc(O)c2c(CNCC(O)CO)c[nH]c2n1 (stereo unspecified) | 88% | – | 31% | <10%
